{"source": "patent US20250381180A1", "about": "“METHODS OF TREATING OR PREVENTING OVERACTIVE BLADDER SYNDROME” (Purdue Pharma L.P., priority 2022, published 2025)", "key": {"[1]": {"assay": "Urine concentrations in humans after a single oral dose", "assay_type": "in vivo, human", "conditions": "see Example 2"}, "[2]": {"system": "rhythmic bladder contractions (RBC) in anesthetized female rats", "assay": "Isovolumetric model: rhythmic bladder contractions (RBC), cystometry", "assay_type": "in vivo, rat", "conditions": "for RBC amplitude, basal / RBC frequency, basal: basal period −30/0 min before i.v. administration, group mean", "text": "In rats, under isovolumetric condition, bladder distension induced rhythmic bladder contractions (RBC) (Aizawa et al, (2015) Effects of L-arginine, mirabegron, and oxybutynin on the primary bladder afferent nerve activities synchronized with reflexic, rhythmic bladder contractions in the rat. Neurourology & Urodynamics 34:368-374). This isovolumetric model allows the evaluation of compound on RBC. It is a closed system where the bladder is slowly infused through a urethral catheter with saline until the occurrence of spontaneous rhythmic bladder contractions.\nTest substance effects were compared to that of the reference substance, tolterodine, an […], marketed for overactive bladder in humans.\nProtocol: • Animals were anesthetized with urethane (i.p.). • Ureters were ligated and sectioned close to the kidneys. • Intravesical catheter was inserted into the bladder though the urinary meatus. • Urinary meatus was closed. • A catheter was inserted into the jugular vein for compound administration. • Bladder was filled with saline until the occurrence of RBC. • After 30 min basal period, compounds were administered as described below. • The effect of the test substances was followed by 1-hour post administration.\nRats were anesthetized with an intraperitoneal administration of urethane (1 g/kg). The ureters were ligated and sectioned close to the kidneys. A catheter (0.30 and 0.70 mm of inner and outer diameters, respectively) was inserted through the urinary meatus into the bladder before urethral ligature. Another catheter (0.58 and 0.96 mm of inner and outer diameters, respectively) was inserted into the jugular vein for intravenous (i.v.) administration.\nFor all group, animals were treated by i.v. route (1 mL/kg) (slow bolus) after the basal period.\nThe vesical catheter was connected via a T-tube to a strain gauge (to measure intra-vesical pressure) and to a syringe. Isovolumetric bladder contractions were induced by stepwise injections of physiological saline at room temperature (100 μL every 5 min) until stable RBC occurred. Vesical pressure was continuously recorded. After a 30 min control period (basal values), substances or vehicle were i.v. administered. The effects of substances were followed during 60 min after administration. At the end of the experiments, animals were sacrificed by cervical dislocation.\nThe following parameters were analyzed: • Amplitude of RBC (mmHg) • Frequency of RBC (number/30 min) • Time of inhibition (sec)\nThe % variation from the basal values were calculated for RBC frequency and amplitude.\nStatistical analysis and graphs were performed using GraphPad Prism® (GraphPad Software Inc., La Jolla, CA, USA). A p value <0.05 was accepted for statistical significance."}, "conscious SCI rats": {"system": "conscious SCI rats", "conditions": "Beauval et al., 2015; cited from earlier work"}, "[3]": {"conditions": "0/60 min after i.v., Cpd (IA) 3 mg/kg (n=8), tolterodine 1 mg/kg, mean"}, "[4]": {"conditions": "0/60 min after i.v., Cpd (IA) 3 mg/kg, tolterodine 1 mg/kg, mean"}, "[5]": {"conditions": "0/60 min after i.v., Cpd (IA) 3 mg/kg, tolterodine 1 mg/kg, mean, listed as Tolterodine"}, "[6]": {"conditions": "i.v., Cpd (IA) 3 mg/kg, tolterodine 1 mg/kg, vs basal"}, "[7]": {"conditions": "i.v., Cpd (IA) 3 mg/kg, tolterodine 1 mg/kg, vs vehicle"}}, "data": [{"smiles": "O=C(O)c1nc2ccccc2n([C@H]2C[C@H]3CCC[C@@H](C2)N3C2CC3CCCC(C3)C2)c1=O", "note": "(single isomer, unassigned) [compound of formula (I′)]", "values": [{"measurement": "route of excretion", "setting": "[1]", "result": "primarily excreted from the urine largely unchanged"}]}, {"smiles": "O=C(O)c1nc2ccccc2n(C2CC3CCCC(C2)N3C2CC3CCCC(C3)C2)c1=O", "note": "(centres unmarked) [compound of formula (I)]", "values": [{"measurement": "route of excretion", "setting": "[1]", "result": "primarily excreted from the urine largely unchanged"}]}, {"smiles": "Cc1ccc(O)c([C@H](CCN(C(C)C)C(C)C)c2ccccc2)c1", "note": "[tolterodine]", "values": [{"measurement": "RBC amplitude, % variation from basal", "setting": "[2]; [3]", "result": "−30.83±5.24", "unit": "%"}, {"measurement": "RBC amplitude, treated period", "setting": "[2]; [3]", "result": 18.56, "unit": "mmHg"}, {"measurement": "RBC amplitude, % variation from basal", "setting": "[2]; 0/60 min after i.v., Cpd (IA) 3 mg/kg (n=8), tolterodine 1 mg/kg, mean, listed as Tolterodine", "result": "−30.83", "unit": "%"}, {"measurement": "RBC frequency, % variation from basal", "setting": "[2]; [4]", "result": "−33.93±10.93", "unit": "%"}, {"measurement": "RBC frequency, treated period", "setting": "[2]; [4]", "result": "15.30±2.72 nb of RBC/30 min"}, {"measurement": "RBC frequency, % variation from basal", "setting": "[2]; [5]", "result": "−33.93", "unit": "%"}, {"measurement": "RBC frequency, treated period", "setting": "[2]; [5]", "result": "15.30 nb of RBC/30 min"}, {"measurement": "Inhibition time", "setting": "[2]; after i.v., Cpd (IA) 3 mg/kg, tolterodine 1 mg/kg, mean", "result": 87.04, "unit": "s"}, {"measurement": "RBC amplitude, basal", "setting": "[2]", "result": "27.22±2.03", "unit": "mmHg"}, {"measurement": "RBC frequency, basal", "setting": "[2]", "result": "23.00±0.87 nb of RBC/30 min"}, {"measurement": "RBC amplitude, basal", "setting": "[2]; listed as Tolterodine", "result": 27.22, "unit": "mmHg"}, {"measurement": "RBC frequency, basal", "setting": "[2]; listed as Tolterodine", "result": "23.00 nb of RBC/30 min"}, {"measurement": "bladder afferent activity", "setting": "[2]; conclusion of Example 1", "result": "no effect"}, {"measurement": "bladder efferent activity", "setting": "[2]; conclusion of Example 1", "result": "effectively inhibited"}, {"measurement": "RBC amplitude, effect versus basal", "setting": "[2]; [6]", "result": "significantly reduced"}, {"measurement": "RBC frequency, effect versus basal", "setting": "[2]; [6]", "result": "significantly decreased"}, {"measurement": "RBC amplitude (% variation), effect versus vehicle", "setting": "[2]; [7]", "result": "significantly reduced"}, {"measurement": "RBC frequency (% variation), effect versus vehicle", "setting": "[2]; [7]", "result": "did not significantly modify"}, {"measurement": "time of inhibition, effect versus vehicle", "setting": "[2]; [7]", "result": "no significant difference"}]}, {"smiles": "C[C@H](Cc1ccc2c(c1)OC(C(=O)[O-])(C(=O)[O-])O2)NC[C@H](O)c1cccc(Cl)c1.[Na+].[Na+]", "note": "[CL-316,243]", "values": [{"measurement": "bladder capacity", "setting": "conscious SCI rats", "result": "significantly increase"}, {"measurement": "frequency of NVC", "setting": "conscious SCI rats", "result": "reduce"}]}]}
